Test results from article PMC10786919, “Design-rules for stapled peptides with in vivo activity and their application to Mdm2/X antagonists” (Nature Communications, 2024).
Converted amounts (≈) assume the structure as drawn. Like-named read-outs stand apart in the source and are kept apart here. Positions of bridges follow the written chain, without caps; N, C: chain ends. Non-standard residues stand in square brackets, D forms with d. Residues, ends and D or L forms follow the SMILES beside them. dPhe(4-CF3) = N[C@H](Cc1ccc(C(F)(F)F)cc1)C(=O)O; dTrp(6-F) = N[C@H](Cc1c[nH]c2cc(F)ccc12)C(=O)O; Lys(N3) = [N-]=[N+]=NCCCC[C@H](N)C(=O)O; R8 = C=CCCCCCC[C@@](C)(N)C(=O)O; Cba = N[C@@H](CC1CCC1)C(=O)O; R5 = C=CCCC[C@@](C)(N)C(=O)O; S5 = C=CCCC[C@](C)(N)C(=O)O; βAla = NCCC(=O)O

Experiments:
human Mdm2 1–125 = biological target: T1, human Mdm2 1–125 (Homo sapiens, UniProt Q00987); assay: Mdm2 binding by competitive fluorescence anisotropy assay (FP binding)
T1 construct: GST (N); His6 (internal); TEV cleavage site (ENLYFQG) (internal); made in house; host or cells: BL21 (DE3) Rosetta T1R Escherichia coli
T1 sequence (Q00987 with tags, fused parts or gaps): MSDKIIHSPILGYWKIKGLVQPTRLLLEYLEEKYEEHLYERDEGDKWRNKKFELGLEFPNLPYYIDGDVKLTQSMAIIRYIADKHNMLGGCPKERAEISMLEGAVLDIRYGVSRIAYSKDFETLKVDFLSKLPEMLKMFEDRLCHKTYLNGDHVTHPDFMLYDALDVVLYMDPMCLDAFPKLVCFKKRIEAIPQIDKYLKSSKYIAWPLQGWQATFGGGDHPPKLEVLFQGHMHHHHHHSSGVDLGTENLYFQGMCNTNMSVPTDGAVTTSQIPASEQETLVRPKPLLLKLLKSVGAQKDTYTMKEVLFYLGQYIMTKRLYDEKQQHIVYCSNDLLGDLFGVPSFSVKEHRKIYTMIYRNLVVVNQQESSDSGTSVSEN

[1] = system: Jump-In T-REx CHO-K1 BLA cells; assay: cells; assay type: cell-based
[2] = Solubility assay (kinetic solubility, PBS pH 7); assay type: physicochemical
How it was run: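 Next, measure peak areas of sample and standard. Finally, multiply their ratio by the standard concentration to obtain solubility (µM).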

physchem [3] = assay: physchem
[4] = Experimental LogD (partition coefficient); conditions: for logD: not stated, Partition Coeff LogD
physchem [5] = assay: physchem; remark: listed apart in the source
physchem [6] = assay: physchem; remark: listed apart in the source
[7] = FP binding assay KD, Tween-20 <CMC
[8] = 0% FBS 4Hr, read-out: TETCHO: Counterscreen EC50
[9] = 10% FBS 16Hr, read-out: TETCHO: Counterscreen EC50
[10] = pH 7, aqueous buffer, kinetic from dmso stock, pH 7, PBS, read-out: Solubility
[11] = 4 hours, 0% serum, read-out: TETCHO Counterscreen EC50

Row | SMILES | Kd (human Mdm2 1–125; [7]) [nM] | TETCHO: Counterscreen % Effect ([1]; 0% FBS 4Hr) [%] | EC50 [1, 8] [µM] | TETCHO: Counterscreen % Effect ([1]; 10% FBS 16Hr) [%] | EC50 [1, 9] [µM] | solubility kinetic [2, 10] [µM] | EPSA (physchem [3]) [A^2] | EC50 [1, 11] [µM] | Kd (human Mdm2 1–125; Binding KD) [nM] | Solubility [2] | Solubility ([2]; pH 7, PBS) | Partition Coeff LogD [4] | EPSA (physchem [5]) [A^2] | logD [4] | Kd (human Mdm2 1–125; read-out: FP binding assay KD) [nM] | TETCHO: Counterscreen % Effect ([1]; 0% FBS 16Hr) [%] | EPSA (physchem [6]) [A^2] | Kd (human Mdm2 1–125; Tween-20 <CMC, read-out: FP binding assay KD) [nM] | solubility kinetic ([2]; pH 7, Solubility) [µM]
1 | CC(=O)N[C@@H](C(=O)N[C@H](C)C(=O)N[C@H](Cc1c[nH]c2cc(F)ccc12)C(=O)N[C@H](Cc1ccc(O)cc1)C(=O)N[C@H](C)C(=O)N[C@]1(C)CCCC=CCCC[C@](C)(C(=O)N[C@H](CC(C)C)C(=O)N[C@H](CO)C(=O)N[C@H](C)C(=O)N[C@H](C)C(=O)N[C@H](C)C(=O)N[C@H](C)C(=O)N[C@H](C)C(=O)N[C@H](C)C(=O)N[C@H](C)C(=O)N[C@H](C)C(=O)N[C@H](C)C(N)=O)NC(=O)[C@@H](CCC(N)=O)NC(=O)[C@@H](CCC(=O)O)NC(=O)[C@@H](Cc2ccc(C(F)(F)F)cc2)NC1=O)[C@H](C)O [MP-1230] (Ac-[dT][dA][dTrp(6-F)][dY][dA][R5][dPhe(4-CF3)][dE][dQ][R5][dL][dS][dA][dA][dA][dA][dA][dA][dA][dA][dA]-NH2; staple 6-10) | 21.7 | 16.32 | > 50.4 | -1.934 | > 50.4 | 16 (≈ 35.7 µg/mL) | 190 |  |  |  |  |  |  |  |  |  |  |  | 
2 | CC(=O)N[C@@H](C(=O)N[C@H](C)C(=O)N[C@H](Cc1c[nH]c2cc(F)ccc12)C(=O)N[C@H](Cc1ccc(O)cc1)C(=O)N[C@H](C)C(=O)N[C@]1(C)CCCC=CCCC[C@](C)(C(=O)N[C@H](CC(C)C)C(=O)N[C@H](CO)C(N)=O)NC(=O)[C@@H](CCC(N)=O)NC(=O)[C@@H](CCC(=O)O)NC(=O)[C@@H](Cc2ccc(C(F)(F)F)cc2)NC1=O)[C@H](C)O [MP-797] (Ac-[dT][dA][dTrp(6-F)][dY][dA][R5][dPhe(4-CF3)][dE][dQ][R5][dL][dS]-NH2; staple 6-10) | 258 | 17.03 | > 50.4 | -11.41 | > 50.4 |  | 198 | > 50 |  |  |  |  |  |  |  |  |  |  | 
3 | CC(=O)N[C@@H](CCCCN=[N+]=[N-])C(=O)NCCC(=O)N[C@@H](CC(C)C)C(=O)N[C@H](C(=O)N[C@@H](Cc1ccccc1)C(=O)N[C@]1(C)CCCCCCC=CCCC[C@@](C)(C(=O)N2CCC[C@@H]2C(=O)N2CCC[C@@H]2C(=O)N2CCC[C@@H]2C(=O)N2CCC[C@@H]2C(=O)N2CCC[C@@H]2C(=O)N2CCC[C@@H]2C(N)=O)NC(=O)[C@H](CC2CCC2)NC(=O)[C@H](CCC(N)=O)NC(=O)[C@H](C)NC(=O)[C@H](Cc2c[nH]c3ccccc23)NC(=O)[C@H](Cc2ccc(O)cc2)NC(=O)[C@H](CCC(=O)O)NC1=O)[C@@H](C)O [MP-896] | 10.9 | -4.745 | > 50.4 | -12.59 | > 50.4 |  |  |  | 11 | P.B. | Poorly Behaved | Poorly Behaved |  |  |  |  |  |  | 
4 | CC(=O)N[C@@H](CCCCN=[N+]=[N-])C(=O)NCCC(=O)N[C@@H](CC(N)=O)C(=O)N[C@H](C(=O)N[C@@H](Cc1ccccc1)C(=O)N[C@]1(C)CCCCCCC=CCCC[C@@](C)(C(=O)N[C@@H](CC(N)=O)C(=O)N[C@@H](CC(N)=O)C(=O)N[C@@H](CC(N)=O)C(N)=O)NC(=O)[C@H](CC2CCC2)NC(=O)[C@H](CCC(N)=O)NC(=O)[C@H](CC(N)=O)NC(=O)[C@H](Cc2c[nH]c3ccccc23)NC(=O)[C@H](Cc2ccc(O)cc2)NC(=O)[C@H](CC(N)=O)NC1=O)[C@@H](C)O [MP-359, azide-ATSP-7041 (L1N, E5N, A8N, S12N, A13N, A14N)] (Ac-[Lys(N3)][βAla]NTF[R8]NYWNQ[Cba][S5]NNN-NH2; staple 6-13) |  | 8.184 | > 50.6 |  |  | 53.7 (≈ 113 µg/mL) |  |  | 15 |  |  |  | 238 | 2.12 |  |  |  |  | 
5 | CC(=O)N[C@@H](CCCCN=[N+]=[N-])C(=O)NCCC(=O)N[C@@H](CC(C)C)C(=O)N[C@H](C(=O)N[C@@H](Cc1ccccc1)C(=O)N[C@]1(C)CCCCCCC=CCCC[C@@](C)(C(=O)N[C@@H](CO)C(=O)N[C@@H](C)C(=O)N[C@@H](C)C(N)=O)NC(=O)[C@H](CC2CCC2)NC(=O)[C@H](CCC(N)=O)NC(=O)[C@H](C)NC(=O)[C@H](Cc2c[nH]c3ccccc23)NC(=O)[C@H](Cc2ccc(O)cc2)NC(=O)[C@H](Cc2c[nH]c3ccccc23)NC1=O)[C@@H](C)O [MP-185] (Ac-[Lys(N3)][βAla]LTF[R8]WYWAQ[Cba][S5]SAA-NH2; staple 6-13) |  | 4.64 | > 50 |  |  | 2 (≈ 4.05 µg/mL) |  |  |  |  |  |  |  | 4 | 98.5 | 9.8 | 226 |  | 
6 | CC(=O)N[C@@H](C(=O)N[C@H](C)C(=O)N[C@H](Cc1c[nH]c2cc(F)ccc12)C(=O)N[C@H](Cc1ccc(O)cc1)C(=O)N[C@H](C)C(=O)N[C@]1(C)CCCC=CCCC[C@](C)(C(=O)N[C@H](CC(C)C)C(=O)N[C@H](CO)C(=O)N[C@H](C)C(=O)N[C@H](C)C(=O)N[C@H](C)C(N)=O)NC(=O)[C@@H](CCC(N)=O)NC(=O)[C@@H](CCC(=O)O)NC(=O)[C@@H](Cc2ccc(C(F)(F)F)cc2)NC1=O)[C@H](C)O [MP-0230] (Ac-[dT][dA][dTrp(6-F)][dY][dA][R5][dPhe(4-CF3)][dE][dQ][R5][dL][dS][dA][dA][dA]-NH2; staple 6-10) |  | 12.86 | > 50.4 | -3.99 | > 50.4 | 140 (≈ 253 µg/mL) | 190 |  |  |  |  |  |  |  |  |  |  | 3.11 | 
7 | CC(C)C[C@@H](NC(=O)[C@@]1(C)CCCC=CCCC[C@@](C)(NC(=O)[C@@H](C)NC(=O)[C@@H](Cc2ccc(O)cc2)NC(=O)[C@@H](Cc2c[nH]c3cc(F)ccc23)NC(=O)[C@@H](C)NC(=O)[C@H](N)[C@H](C)O)C(=O)N[C@H](Cc2ccc(C(F)(F)F)cc2)C(=O)N[C@H](CCC(=O)O)C(=O)N[C@H](CCC(N)=O)C(=O)N1)C(=O)N[C@H](CO)C(N)=O [MP-795] (H-[dT][dA][dTrp(6-F)][dY][dA][R5][dPhe(4-CF3)][dE][dQ][R5][dL][dS]-NH2; staple 6-10) | 152 | 35.97 | > 50.4 | 0.2467 | > 50.4 |  | 234 |  |  |  |  |  |  | 2.32 |  |  |  |  | 1 (≈ 1.55 µg/mL)
8 | CC(=O)N[C@@H](C(=O)N[C@H](C)C(=O)N[C@H](Cc1c[nH]c2cc(F)ccc12)C(=O)N[C@H](Cc1ccc(O)cc1)C(=O)N[C@H](C)C(=O)N[C@]1(C)CCCC=CCCC[C@](C)(C(=O)N[C@H](CC(C)C)C(=O)N[C@H](CO)C(=O)N[C@H](C)C(=O)N[C@H](C)C(=O)N[C@H](C)C(=O)N[C@H](C)C(=O)N[C@H](C)C(=O)N[C@H](C)C(N)=O)NC(=O)[C@@H](CCC(N)=O)NC(=O)[C@@H](CCC(=O)O)NC(=O)[C@@H](Cc2ccc(C(F)(F)F)cc2)NC1=O)[C@H](C)O [MP-042] (Ac-[dT][dA][dTrp(6-F)][dY][dA][R5][dPhe(4-CF3)][dE][dQ][R5][dL][dS][dA][dA][dA][dA][dA][dA]-NH2; staple 6-10) | 3.23 | 12.4 | > 50.4 | 2.411 | > 50.4 |  |  | > 50 | 30 |  |  |  |  |  |  |  |  |  | 
9 | CC(=O)N[C@@H](CC(C)C)C(=O)N[C@H](C(=O)N[C@@H](Cc1ccccc1)C(=O)N[C@]1(C)CCCCCCC=CCCC[C@@](C)(C(=O)N[C@@H](CO)C(=O)N[C@@H](C)C(=O)N[C@@H](C)C(N)=O)NC(=O)[C@@H](CC2CCC2)NC(=O)[C@H](CC(C)C)NC(=O)[C@H](CCC(N)=O)NC(=O)[C@H](Cc2c[nH]c3ccccc23)NC(=O)[C@H](Cc2ccc(O)cc2)NC(=O)[C@H](CCC(=O)O)NC1=O)[C@@H](C)O [MP-009] |  | 4.797 | > 50.6 |  |  | 79.3 (≈ 142 µg/mL) |  |  |  |  |  |  |  | 2.7 | 2220 | -1.31 | 204 |  | 
